The structures appear in SMILES notation.

The target in this assay is T1, Ubiquitin carboxyl-terminal hydrolase 30 (Homo sapiens, UniProt Q70CQ3).
T1 sequence (Q70CQ3 whole entry): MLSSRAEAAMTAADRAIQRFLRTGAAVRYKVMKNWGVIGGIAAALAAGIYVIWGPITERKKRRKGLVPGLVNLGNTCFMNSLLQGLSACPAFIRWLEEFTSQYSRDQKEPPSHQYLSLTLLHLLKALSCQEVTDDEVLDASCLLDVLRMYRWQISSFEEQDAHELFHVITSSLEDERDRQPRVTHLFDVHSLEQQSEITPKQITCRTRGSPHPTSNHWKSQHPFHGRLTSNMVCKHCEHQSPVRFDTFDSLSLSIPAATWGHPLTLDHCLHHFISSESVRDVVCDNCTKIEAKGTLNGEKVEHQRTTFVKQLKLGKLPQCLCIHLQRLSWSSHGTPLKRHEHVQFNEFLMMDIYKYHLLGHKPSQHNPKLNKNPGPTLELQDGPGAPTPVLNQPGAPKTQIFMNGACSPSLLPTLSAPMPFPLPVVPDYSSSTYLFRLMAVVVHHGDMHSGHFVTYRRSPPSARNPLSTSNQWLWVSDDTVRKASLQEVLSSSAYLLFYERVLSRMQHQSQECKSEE
In words: Inhibition of untagged human USP30 catalytic domain (57 to 517 residues) expressed in Escherichia coli using TAMRA labeled ubiquitin peptide as substrate preincubated for 30 min followed by substrate addition and measured after 2 hrs by fluorescence polarization assay. A general note: Fluorescence polarisation rises when a labelled molecule tumbles more slowly, as on binding a larger partner.
The IC50 is the point on the concentration scale where inhibition reaches its midpoint. `CN1c2ccccc2CN([C@@H]2CCN(C#N)C2)S1(=O)=O` displayed an IC50 of 1000 to 10000 nM. In the case of `N#CN1CC[C@@H](N2Cc3ccnc(N4CCOCC4)c3NS2(=O)=O)C1` it was 1000 to 10000 nM; in that of `CN1c2ccc(-c3ccccc3)cc2CN([C@@H]2CCN(C#N)C2)S1(=O)=O`, 100 to 1000 nM.
